According to patent US20240409557A1, “5,6-FUSED AND 6,6-FUSED BICYCLIC ALCOHOLS AND ETHERS AND COMPOSITIONS FOR USE AS 15-PROSTAGLANDIN DEHYDROGENASE MODULATORS” (AMGEN INC., priority 2023, published 2024):

What was measured:
[1] = biological target: T1, human recombinant 15-PGDH (Homo sapiens, UniProt P15428); assay: Recombinant 15-PGDH enzymatic inhibition assay (PGDH-Lumi, NADH signal); type: biochemical; settings: recombinant 15-PGDH; 15 min pre-incubation, 60 min reaction with PGE2 and NAD+, NADH signal
T1 sequence (P15428 1-266): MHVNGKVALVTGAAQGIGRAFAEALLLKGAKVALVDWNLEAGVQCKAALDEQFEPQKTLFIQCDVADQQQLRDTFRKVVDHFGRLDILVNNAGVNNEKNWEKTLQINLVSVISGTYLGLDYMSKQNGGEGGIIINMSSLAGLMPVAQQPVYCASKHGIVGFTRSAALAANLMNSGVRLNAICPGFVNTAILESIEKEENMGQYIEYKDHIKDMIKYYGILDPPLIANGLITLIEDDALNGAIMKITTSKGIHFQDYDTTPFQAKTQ
Method in brief: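 Buffer 50 mM Tris pH 7.5 with 0.01% Tween-20 and […]; compound, 22 two-fold dilutions, pre-incubated with enzyme 15 min before substrate.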

15-PGDH in A549 cells = biological target: T2, 15-PGDH in A549 cells (Homo sapiens, UniProt P15428); assay: A549 cellular 15-PGDH assay (PGE2 accumulation, HTRF); type: cell-based; settings: interleukin-stimulated, inhibitor 24 hrs, PGE2 by competitive HTRF, read-out: A549 Cell Assay IC50
T2 construct: endogenous in cells; host or cells: A549
T2 sequence (P15428 1-266): T1 sequence (P15428 1-266)
Method in brief: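 Supernatant PGE2 was quantified by competitive HTRF, in which sample PGE2 blocks FRET between a europium cryptate-labelled antibody and labelled PGE2. It came from A549 epithelial cells induced with IL-13. IC50s were calculated from the inversely proportional signal.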

IC50 [1] [nM]	IC50 (15-PGDH in A549 cells) [nM]	SMILES
26.1	12.3	OC1(c2cc3ccc(-c4cncnc4)nc3s2)CC(F)(F)C1 [Compound C46, 3,3-difluoro-1-(6-(5-pyrimidinyl)thieno[2,3-b]pyridin-2-yl)cyclobutanol]
0.996	0.373	OC1(c2cc3ccc(-c4cnc5nccnc5c4)nc3s2)CC(F)(F)C1 [Compound C47, 3,3-difluoro-1-(6-(pyrido[2,3-b]pyrazin-7-yl)thieno[2,3-b]pyridin-2-yl)cyclobutanol]
27.7	7.36	Cn1cc2cc(-c3ccc4cc(C5(O)CC(F)(F)C5)sc4c3)cnc2n1 [Compound C48, 3,3-difluoro-1-(6-(2-methyl-2H-pyrazolo[3,4-b]pyridin-5-yl)-1-benzothiophen-2-yl)cyclobutanol]
13.2	1.82	Cn1cc2cc(-c3ccc4cc(C5(O)CC(F)(F)C5)sc4n3)ccc2n1 [Compound C49, 3,3-difluoro-1-(6-(2-methyl-2H-indazol-5-yl)thieno[2,3-b]pyridin-2-yl)cyclobutanol]
34.7	11.1	OC1(c2cc3ccc(-c4ccc5oncc5c4)nc3s2)CC(F)(F)C1 [Compound C50, 1-(6-(1,2-benzoxazol-5-yl)thieno[2,3-b]pyridin-2-yl)-3,3-difluorocyclobutanol]
2.19	1.1	Cn1nnc2cc(-c3ccc4cc(C5(O)CC(F)(F)C5)sc4n3)cnc21 [Compound C51, 3,3-difluoro-1-(6-(3-methyl-3H-[1,2,3]triazolo[4,5-b]pyridin-6-yl)thieno[2,3-b]pyridin-2-yl)cyclobutanol]
0.361	0.0938	Cn1cc2cc(-c3ccc4cc(C5(O)CC6(CCCCC6)C5)sc4n3)cnc2n1 [Compound C52, 2-(6-(2-methyl-2H-pyrazolo[3,4-b]pyridin-5-yl)thieno[2,3-b]pyridin-2-yl)spiro[3.5]nonan-2-ol]
0.363	0.0361	Cn1cc2cc(-c3ccc4cc(C5(O)CC6(CCCC6)C5)sc4n3)cnc2n1 [Compound C53, 2-(6-(2-methyl-2H-pyrazolo[3,4-b]pyridin-5-yl)thieno[2,3-b]pyridin-2-yl)spiro[3.4]octan-2-ol]
3.51	3.06	Cc1cn2ncc(-c3ccc4cc(C5(O)CC(F)(F)C5)sc4n3)cc2n1 [Compound C54, 3,3-difluoro-1-(6-(2-methylimidazo[1,2-b]pyridazin-7-yl)thieno[2,3-b]pyridin-2-yl)cyclobutanol]
0.821	1.59	OC1(c2cc3ccc(-c4cnc5[nH]nnc5c4)nc3s2)CC(F)(F)C1 [Compound C55]
0.62	0.143	Cn1cc2cc(-c3ncc4cc(C5(O)CC(C)(C)C5)sc4n3)cnc2n1 [Compound C57, 3,3-dimethyl-1-(2-(2-methyl-2H-pyrazolo[3,4-b]pyridin-5-yl)thieno[2,3-d]pyrimidin-6-yl)cyclobutanol]
52.1	26.7	Cn1cc2cc(-c3ccc4cc(C5(O)CC5)sc4n3)cnc2n1 [Compound C60, 1-(6-(2-methyl-2H-pyrazolo[3,4-b]pyridin-5-yl)thieno[2,3-b]pyridin-2-yl)cyclopropanol]
0.28	0.0594	Cn1cc2cc(-c3ccc4cc(C5(O)CC6(CC6)C5)sc4n3)cnc2n1 [Compound C61, 5-(6-(2-methyl-2H-pyrazolo[3,4-b]pyridin-5-yl)thieno[2,3-b]pyridin-2-yl)spiro[2.3]hexan-5-o1]
0.58	0.361	Cn1cc2cc(-c3ccc4nc(C5(O)CC(C)(C)C5)sc4n3)cnc2n1 [Compound C68, 3,3-dimethyl-1-(5-(2-methyl-2H-pyrazolo[3,4-b]pyridin-5-yl)[1,3]thiazolo[5,4-b]pyridin-2-yl)cyclobutanol]
2.44	1.26	Cn1cc2cc(-c3ccc4c(Cl)c(C5(O)CC(C)(C)C5)sc4n3)cnc2n1 [Compound C73, 1-(3-chloro-6-(2-methyl-2H-pyrazolo[3,4-b]pyridin-5-yl)thieno[2,3-b]pyridin-2-yl)-3,3-dimethylcyclobutanol]
7.69	9.15	Cc1c(C2(O)CC(F)(F)C2)sc2nc(-c3cnc4nn(C)cc4c3)ccc12 [Compound C77, 3,3-difluoro-1-(3-methyl-6-(2-methyl-2H-pyrazolo[3,4-b]pyridin-5-yl)thieno[2,3-b]pyridin-2-yl)cyclobutanol]

The next lines start with the compound.

SMILES	IC50 [1] [nM]	IC50 (15-PGDH in A549 cells) [nM]
CO[C@]1(C)C[C@@](O)(c2cc3ccc(-c4cnc5nn(C)cc5c4)nc3s2)C1 [Compound C59C, cis-3-methoxy-3-methyl-1-(6-(2-methyl-2H-pyrazolo[3,4-b]pyridin-5-yl)thieno[2,3-b]pyridin-2-yl)cyclobutanol]	0.584	0.113
Cn1cc2cc(-c3ccc4cc([C@]5(O)C[C@@](C)(C#N)C5)sc4n3)cnc2n1 [Compound C63C, cis-3-hydroxy-1-methyl-3-(6-(2-methyl-2H-pyrazolo[3,4-b]pyridin-5-yl)thieno[2,3-b]pyridin-2-yl)cyclobutanecarbonitrile]	0.429	0.115
Cn1cc2cc(-c3ccc4cc([C@]5(O)C[C@](C)(C#N)C5)sc4n3)cnc2n1 [Compound C63T, trans-3-hydroxy-1-methyl-3-(6-(2-methyl-2H-pyrazolo[3,4-b]pyridin-5-yl)thieno[2,3-b]pyridin-2-yl)cyclobutanecarbonitrile]	0.376	0.0863
Cn1cc2cc(-c3ccc4cc([C@]5(O)C[C@@H](OC(F)(F)F)C5)sc4n3)cnc2n1 [Compound C67C, cis-1-(6-(2-methyl-2H-pyrazolo[3,4-b]pyridin-5-yl)thieno[2,3-b]pyridin-2-yl)-3-(trifluoromethoxy)cyclobutanol]	0.534	0.0187
CO[C@H]1C[C@](O)(c2sc3nc(-c4cnc5nn(C)cc5c4)ccc3c2Cl)C1 [Compound C69C, cis-1-(3-chloro-6-(2-methyl-2H-pyrazolo[3,4-b]pyridin-5-yl)thieno[2,3-b]pyridin-2-yl)-3-methoxycyclobutanol]	1.16	0.722
Cn1cc2cc(-c3ncc4cc([C@]5(O)C[C@@H](C(F)(F)F)C5)sc4n3)cnc2n1 [Compound C71C, cis-1-(2-(2-methyl-2H-pyrazolo[3,4-b]pyridin-5-yl)thieno[2,3-d]pyrimidin-6-yl)-3-(trifluoromethyl)cyclobutanol]	0.54	0.142
Cn1cc2cc(-c3ccc4nc([C@]5(O)C[C@@H](C(F)(F)F)C5)sc4n3)cnc2n1 [Compound C74C, cis-1-(5-(2-methyl-2H-pyrazolo[3,4-b]pyridin-5-yl)[1,3]thiazolo[5,4-b]pyridin-2-yl)-3-(trifluoromethyl)cyclobutanol]	0.458	0.192
Cn1cc2cc(-c3ccc4c(Cl)c([C@]5(O)C[C@@H](C(F)(F)F)C5)sc4n3)cnc2n1 [Compound C75C, cis-1-(3-chloro-6-(2-methyl-2H-pyrazolo[3,4-b]pyridin-5-yl)thieno[2,3-b]pyridin-2-yl)-3-(trifluoromethyl)cyclobutanol]	0.707	1.07
Cn1nnc2cc(-c3ccc4cc([C@]5(O)C[C@@H](C(F)F)C5)sc4n3)cnc21 [Compound C76C, cis-3-(difluoromethyl)-1-(6-(3-methyl-3H-[1,2,3]triazolo[4,5-b]pyridin-6-yl)thieno[2,3-b]pyridin-2-yl)cyclobutanol]	0.832	1.03
Cc1c2ccc(-c3cnc4nn(C)cc4c3)nc2sc1[C@]1(O)C[C@@H](C(F)(F)F)C1 [Compound C78C, cis-1-(3-methyl-6-(2-methyl-2H-pyrazolo[3,4-b]pyridin-5-yl)thieno[2,3-b]pyridin-2-yl)-3-(trifluoromethyl)cyclobutanol]	1.03	2.42
Cn1nnc2cc(-c3ccc4cc([C@]5(O)C[C@@H](C(F)(F)F)C5)sc4n3)cnc21 [Compound C79C, cis-1-(6-(3-methyl-3H-[1,2,3]triazolo[4,5-b]pyridin-6-yl)thieno[2,3-b]pyridin-2-yl)-3-(trifluoromethyl)cyclobutanol]	0.585	0.832
Cn1cc2cc(-c3ncc4cc([C@]5(O)C[C@@H](C(F)F)C5)sc4n3)cnc2n1 [Compound C80C, cis-3-(difluoromethyl)-1-(2-(2-methyl-2H-pyrazolo[3,4-b]pyridin-5-yl)thieno[2,3-d]pyrimidin-6-yl)cyclobutanol]	0.771	1.26
Cn1cc2cc(-c3ccc4nc([C@]5(O)C[C@@H](C(F)F)C5)sc4n3)cnc2n1 [Compound C81C, cis-3-(difluoromethyl)-1-(5-(2-methyl-2H-pyrazolo[3,4-b]pyridin-5-yl)[1,3]thiazolo[5,4-b]pyridin-2-yl)cyclobutanol]	0.641	2.69
Cn1nnc2cc(-c3ccc4nc([C@]5(O)C[C@@H](C(F)F)C5)sc4n3)cnc21 [Compound C82C, cis-3-(difluoromethyl)-1-(5-(3-methyl-3H-[1,2,3]triazolo[4,5-b]pyridin-6-yl)[1,3]thiazolo[5,4-b]pyridin-2-yl)cyclobutanol]	9.49	34.2
